Measured values reported in patent US7585859B2, “PDE4B inhibitors and uses therefor” (Plexxikon, Inc., priority 2004, dated 2009).
pIC50: −log10 of the molar value. Like-named read-outs stand apart in the source and are kept apart here.

What was measured:
[1] = target: T1, PDE4B: The catalytic domain of human PDE4B from S152-S528 (Homo sapiens, UniProt Q07343); experiment: PDE4 IC50 determination by Scintillation Proximity Assay, PDE4B; type: biochemical
T1 construct: His6 (N); thrombin cleavage site (N); made in house; host or cells: E. coli
In short: (§1)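 Enzyme was added to compound and [^3H]cAMP, then incubated 30 min at 30° (PDE4B 80 ng/ml; PDE4D 4 ng/ml). Product [^3H]AMP bound to SPA beads and was counted. IC50 was fitted by non-linear regression against DMSO and roflumilast controls.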

[2] = tested on: TNFα levels in serum of LPS-challenged rats; experiment: Rat inhibition studies: serum TNFα after iv LPS challenge; type: in vivo; conditions: read-out: % inhibition r TNFα
Description: All studies were done with male rats CD (SD) IGS BR (Crl) (Charles River, France), which were grouped in to 5 animal groups.
At the end of the acclimatization period, the non-fasted rats were weighed, individually identified on the tail with a permanent marker and administered by oral (po) or interperitoneal (ip) route with either vehicle, reference or test compound in a volume of 10 mL/kg adapted to the body weight. The animals were gathered in groups of 5 animals in a polystyrene labeled cage with sawdust covered floors. 2-hours after vehicle, reference or test substance administration, rats received an intravenous (iv) injection of 0.1 mg/kg LPS in a volume of 1 mL/kg of body weight. 2 h after LPS challenge (or as indicated in Tables 3B and 4B), blood samples were collected into tubes without anticoagulant by retro-orbital puncture under gas (isoflurane) anesthesia. Samples were allowed to clot at room temperature for 5 to 10 min then put on ice until there were prepared by centrifugation (6000×g for 3 min at 4° C.) and stored at −20° C. until use. TNFα levels were measured in serum samples in duplicate by ELISA technique according to the manufacturer's procedure (Rat TNFα kit Quantikine M (RTA00, R&D System, France)). Data are reported as percent decrease in observed TNFα levels versus TNFa levels observed for vehicle dosed animal groups.

[3] = target: T2, full-length human PDE4B2 isozyme (Homo sapiens, UniProt Q07343); experiment: PDE4 IC50 determination by Scintillation Proximity Assay, PDE4B2; type: biochemical; conditions: Table 1B, Formula I compounds; read-out: IC50 PDE4B2
T2 construct: The full-length human PDE4B2 isozyme; His6 (N); TEV cleavage site (N); made in house; host or cells: baculovirus infected insect cells (unpurified lysate)
In short: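 Unpurified His6-TEV-tagged full-length human PDE4B2 from baculovirus-infected insect cell lysate (2.5 μl of 50% glycerol stock/ml) hydrolysed [3H]cAMP in 50 mM Tris pH 7.5, 8.3 mM MgCl, 1.7 mM EGTA, 0.01% BSA for 30 min at 30°. Stopped with SPA beads in 18 mM ZnSO4; [3H]AMP scintillation counted, IC50 by non-linear regression.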

[4] = target: T3, full-length human PDE4D5 isozyme (Homo sapiens, UniProt Q08499); experiment: PDE4 IC50 determination by Scintillation Proximity Assay, PDE4D5; type: biochemical; conditions: Table 1B, Formula I compounds; read-out: IC50 PDE4D5
T3 construct: The full-length human PDE4D5 isozyme; His6 (N); TEV cleavage site (N); made in house; host or cells: baculovirus infected insect cells (unpurified lysate)
In short: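 Unpurified His6-tagged full-length human PDE4D5 from baculovirus-infected insect cell lysate, 0.083 μl glycerol stock/ml, hydrolysed [3H]cAMP in Tris pH 7.5/MgCl/EGTA buffer, 30 min at 30°. ZnSO4/SPA beads stop; [3H]AMP counted. Controls: DMSO and roflumilast; 11-point duplicate curves, nonlinear-regression IC50.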

[5] = target: T4, PDE4D (Homo sapiens, UniProt Q08499); experiment: PDE4 IC50 determination by Scintillation Proximity Assay, PDE4D; type: biochemical
T4 construct: PDE4D: The catalytic domain of human PDE4B from S3 16-V692; His6 (N); thrombin cleavage site (N); made in house; host or cells: E. coli
In short: as §1

[6] = Table 1B, Formula I compounds, read-out: IC50 PDE4B
[7] = Table 1B, Formula I compounds, read-out: IC50 PDE4D
[8] = po, 2 h, rat in vivo inhibition assay, 100 mg/kg po, 2 hr challenge delay
[9] = po, 2 h, rat in vivo, 100 mg/kg po, 2 hr challenge delay, percent decrease in TNFα versus vehicle
[10] = second part of Table 2B (2-23 to 2-103), column 3, column is PDE4B in first part, read-out: IC 50 vs. indicated assay h TNFα
[11] = second part of Table 2B (2-23 to 2-103), column 5, column is PDE4D in first part, read-out: IC 50 vs. indicated assay h TNFα
[12] = po, 1 h, rat in vivo, 100 mg/kg po, 1 hr

T2 sequence (Q07343 1-564 isoform Q07343-2): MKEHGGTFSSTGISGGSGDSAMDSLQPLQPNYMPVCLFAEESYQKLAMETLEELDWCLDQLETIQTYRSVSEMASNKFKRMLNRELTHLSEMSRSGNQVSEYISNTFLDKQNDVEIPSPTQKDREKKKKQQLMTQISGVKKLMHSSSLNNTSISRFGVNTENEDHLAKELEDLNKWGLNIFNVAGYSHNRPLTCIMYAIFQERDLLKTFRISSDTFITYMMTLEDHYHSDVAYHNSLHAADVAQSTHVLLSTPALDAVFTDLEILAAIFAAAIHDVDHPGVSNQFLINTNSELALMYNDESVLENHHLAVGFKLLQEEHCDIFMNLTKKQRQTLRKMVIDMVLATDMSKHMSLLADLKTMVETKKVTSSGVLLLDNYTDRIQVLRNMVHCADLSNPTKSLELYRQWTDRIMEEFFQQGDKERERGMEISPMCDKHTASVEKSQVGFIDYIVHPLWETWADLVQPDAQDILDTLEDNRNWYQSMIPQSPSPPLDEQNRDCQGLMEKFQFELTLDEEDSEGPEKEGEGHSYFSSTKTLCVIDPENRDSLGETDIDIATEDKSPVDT
T1 sequence (Q07343 with tags, fused parts or gaps): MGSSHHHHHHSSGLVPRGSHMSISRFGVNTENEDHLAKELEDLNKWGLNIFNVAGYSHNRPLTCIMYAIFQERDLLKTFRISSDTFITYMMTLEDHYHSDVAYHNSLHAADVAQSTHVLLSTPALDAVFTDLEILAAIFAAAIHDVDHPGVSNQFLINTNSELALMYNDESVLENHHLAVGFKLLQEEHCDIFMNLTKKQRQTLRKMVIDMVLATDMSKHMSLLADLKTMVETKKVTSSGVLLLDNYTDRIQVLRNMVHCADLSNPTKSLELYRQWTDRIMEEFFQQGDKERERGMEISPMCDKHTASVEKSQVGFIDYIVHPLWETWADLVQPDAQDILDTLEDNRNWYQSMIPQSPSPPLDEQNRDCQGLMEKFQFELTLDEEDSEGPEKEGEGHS
T3 sequence (Q08499 1-745 isoform Q08499-6): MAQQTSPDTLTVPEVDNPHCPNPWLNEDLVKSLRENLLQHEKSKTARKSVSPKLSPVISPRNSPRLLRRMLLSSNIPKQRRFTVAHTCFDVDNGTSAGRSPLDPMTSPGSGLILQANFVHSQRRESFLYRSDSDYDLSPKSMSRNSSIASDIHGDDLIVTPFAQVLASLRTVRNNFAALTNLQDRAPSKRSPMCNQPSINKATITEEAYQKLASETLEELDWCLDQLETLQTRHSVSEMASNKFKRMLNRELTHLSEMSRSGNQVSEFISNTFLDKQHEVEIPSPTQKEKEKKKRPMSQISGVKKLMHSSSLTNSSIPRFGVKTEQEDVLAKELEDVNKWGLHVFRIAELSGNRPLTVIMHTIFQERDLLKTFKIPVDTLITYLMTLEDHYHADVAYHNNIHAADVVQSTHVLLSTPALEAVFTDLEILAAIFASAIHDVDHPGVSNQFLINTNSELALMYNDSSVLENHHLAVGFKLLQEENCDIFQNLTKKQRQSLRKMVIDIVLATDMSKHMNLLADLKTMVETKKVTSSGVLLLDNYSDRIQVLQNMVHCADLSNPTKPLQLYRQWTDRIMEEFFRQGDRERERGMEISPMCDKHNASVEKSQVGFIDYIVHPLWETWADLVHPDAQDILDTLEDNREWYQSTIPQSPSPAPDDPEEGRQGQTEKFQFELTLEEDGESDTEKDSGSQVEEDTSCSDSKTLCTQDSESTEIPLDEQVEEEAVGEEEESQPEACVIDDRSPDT
T4 sequence (Q08499 380-756): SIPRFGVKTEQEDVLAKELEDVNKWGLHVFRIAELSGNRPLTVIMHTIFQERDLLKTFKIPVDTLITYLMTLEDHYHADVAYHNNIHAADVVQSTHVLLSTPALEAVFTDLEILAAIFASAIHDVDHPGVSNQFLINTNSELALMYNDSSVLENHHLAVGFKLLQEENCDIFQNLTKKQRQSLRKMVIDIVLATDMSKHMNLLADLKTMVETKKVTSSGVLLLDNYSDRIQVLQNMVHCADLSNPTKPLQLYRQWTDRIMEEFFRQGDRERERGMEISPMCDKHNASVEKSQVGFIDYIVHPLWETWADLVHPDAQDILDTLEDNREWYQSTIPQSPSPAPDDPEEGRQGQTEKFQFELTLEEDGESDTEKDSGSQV

pIC50 [3]	pIC50 [4]	Compound	pIC50 [1, 6]	pIC50 [5, 7]	inhibition in vivo at 100 mg/kg [2, 8] [%]	further results
–	–	N#Cc1c(Nc2ccc(OC(F)F)cc2)sc(C(=O)c2ccccc2)c1N [Compound 1-166, 4-Amino-5-benzoyl-2-(4-difluoromethoxy-phenylamino)-thiophene-3-carbonitrile]	> 5.00	> 5.00	< 20	–
–	–	CSc1ccc(Nc2sc(C(=O)c3ccccc3)c(N)c2C#N)cc1 [Compound 1-167, 4-Amino-5-benzoyl-2-(4-methylsulfanyl-phenylamino)-thiophene-3-carbonitrile]	> 5.00	> 5.00	< 20	–
–	–	COc1ccc(C(=O)c2sc(Nc3cccc(SC)c3)c(C#N)c2N)cc1 [Compound 1-177, 4-Amino-5-(4-methoxy-benzoyl)-2-(3-methylsulfanyl-phenylamino)-thiophene-3-carbonitrile]	> 5.00	> 5.00	< 20	–
< 5.00	< 5.00	COc1cccc(CNc2sc(C(=O)c3cc(-c4ccccc4)no3)c(N)c2C#N)c1 [Compound 1-216]	< 5.00	< 5.00	–	–
> 5.00	> 5.00	CC(C)(C)Nc1sc(C(=O)c2cc(-c3ccccc3)no2)c(N)c1C#N [Compound 1-224, 4-Amino-2-tert-butylamino-5-(3-phenyl-isoxazole-5-carbonyl)-thiophene-3-carbonitrile]	> 5.00	> 5.00	–	–
< 5.00	< 5.00	CC(C)CNc1sc(C(=O)c2cc(-c3ccc(Cl)c(Cl)c3)no2)c(N)c1C#N [Compound 1-226, 4-Amino-5-[3-(3,4-dichloro-phenyl)-isoxazole-5-carbonyl]-2-isobutylamino-thiophene-3-carbonitrile]	< 5.00	< 5.00	–	–
< 5.00	< 5.00	N#Cc1c(NC2CCCC2)sc(C(=O)c2cc(-c3ccc(Cl)cc3Cl)no2)c1N [Compound 1-227, 4-Amino-2-cyclopentylamino-5-[3-(2,4-dichloro-phenyl)-isoxazole-5-carbonyl]-thiophene-3-carbonitrile]	> 5.00	> 5.00	–	–
< 5.00	< 5.00	CCC(CC)Nc1sc(C(=O)c2cc(-c3ccccc3)no2)c(N)c1C#N [Compound 1-228, 4-Amino-2-(1-ethyl-propylamino)-5-(3-phenyl-isoxazole-5-carbonyl)-thiophene-3-carbonitrile]	> 5.00	> 5.00	–	–
> 5.00	> 5.00	CC(C)CNc1sc(C(=O)c2ccc(Oc3ccccc3)cc2)c(N)c1C#N [Compound 1-233, 4-Amino-2-isobutylamino-5-(4-phenoxy-benzoyl)-thiophene-3-carbonitrile]	> 5.00	> 5.00	–	–
> 5.00	< 5.00	CC(C)C(C)Nc1sc(C(=O)c2cc(-c3ccc(Cl)c(Cl)c3)no2)c(N)c1C(N)=O (stereo not shown) [Compound 1-248, 4-Amino-5-[3-(3,4-dichloro-phenyl)-isoxazole-5-carbonyl]-2-(1,2-dimethyl-propylamino)-thiophene-3-carboxylic acid amide]	> 5.00	> 5.00	–	–
–	–	CCOC(=O)c1cc(C(=O)c2sc(Nc3ccccc3F)nc2N)on1 [Compound 2-1, 5-[4-Amino-2-(2-fluoro-phenylamino)-thiazole-5-carbonyl]-isoxazole-3-carboxylic acid ethyl ester]	–	–	–	pIC50 ([1]; first part of Table 2B (2-1 to 2-22), read-out: IC 50 vs. indicated assay PDE4B): > 5.00; inhibition in vivo at 100 mg/kg [2, 9]: < 20%; pIC50 ([5]; first part of Table 2B (2-1 to 2-22), read-out: IC 50 vs. indicated assay PDE4D): > 5.00
–	–	CCOC(=O)c1ccc(Nc2nc(N)c(C(=O)c3ccccc3)s2)cc1 [Compound 2-33, 4-(4-Amino-5-benzoyl-thiazol-2-ylamino)-benzoic acid ethyl ester]	–	–	–	pIC50 [1, 10]: > 5.00; inhibition in vivo at 100 mg/kg [2, 9]: > 20%; pIC50 [5, 11]: < 5.00
–	–	COC(=O)c1cccc(Nc2nc(N)c(C(=O)c3ccccc3)s2)c1 [Compound 2-34, 3-(4-Amino-5-benzoyl-thiazol-2-ylamino)-benzoic acid methyl ester]	–	–	–	pIC50 [1, 10]: > 5.00; inhibition in vivo at 100 mg/kg [2, 9]: < 20%; pIC50 [5, 11]: > 5.00
–	–	CCOC(=O)c1ccc(Nc2nc(N)c(C(=O)c3ccc(OC)cc3)s2)cc1 [Compound 2-38, 4-[4-Amino-5-(4-methoxy-benzoyl)-thiazol-2-ylamino]-benzoic acid ethyl ester]	–	–	–	pIC50 [1, 10]: > 5.00; inhibition in vivo at 100 mg/kg [2, 12]: < 20%; pIC50 [5, 11]: > 5.00
–	–	COc1ccc(C(=O)c2sc(Nc3ccc(C(=O)O)cc3)nc2N)cc1 [Compound 2-40, 4-[4-Amino-5-(4-methoxy-benzoyl)-thiazol-2-ylamino]-benzoic acid]	–	–	–	pIC50 [1, 10]: > 5.00; inhibition in vivo at 100 mg/kg [2, 12]: < 20%; pIC50 [5, 11]: > 5.00
–	–	COc1ccc(C(=O)c2sc(Nc3c(Cl)cccc3Cl)nc2N)cc1 [Compound 2-41, [4-Amino-2-(2,6-dichloro-phenylamino)-thiazol-5-yl]-(4-methoxy-phenyl)-methanone]	–	–	–	pIC50 [1, 10]: > 5.00; inhibition in vivo at 100 mg/kg [2, 9]: < 20%; pIC50 [5, 11]: > 5.00
–	–	Nc1nc(Nc2c(Cl)cccc2Cl)sc1C(=O)C1CCCC1 [Compound 2-93, [4-Amino-2-(2,6-dichloro-phenylamino)-thiazol-5-yl]-cyclopentyl-methanone]	–	–	–	pIC50 [1, 10]: > 5.00; inhibition in vivo at 100 mg/kg [2, 12]: < 20%; pIC50 [5, 11]: > 5.00

Compound	pIC50 [3]	pIC50 [4]	pIC50 [1, 6]	pIC50 [5, 7]	inhibition in vivo at 100 mg/kg [2, 8] [%]	further results
Cc1ccc(C(=O)c2sc(Nc3ccccc3)c(C#N)c2N)cc1 [Compound 1-29, 4-Amino-5-(4-methyl-benzoyl)-2-phenylamino-thiophene-3-carbonitrile]	> 5.00	> 5.00	> 5.00	> 5.00	–	inhibition in vivo at 100 mg/kg ([2]; ip, 1 h, rat, 100 mg/kg, ip, 1 hr challenge delay): > 20%
COc1ccccc1Nc1sc(C(=O)c2ccccc2)c(N)c1C#N [Compound 1-30, 4-Amino-5-benzoyl-2-(2-methoxy-phenylamino)-thiophene-3-carbonitrile]	> 5.00	> 5.00	> 5.00	> 5.00	> 20	–
COc1ccc(Nc2sc(C(=O)c3ccccc3)c(N)c2C#N)cc1 [Compound 1-32, 4-Amino-5-benzoyl-2-(4-methoxy-phenylamino)-thiophene-3-carbonitrile]	> 5.00	> 5.00	> 5.00	> 5.00	< 20	–
COc1cccc(C(=O)c2sc(Nc3ccccc3)c(C#N)c2N)c1 [Compound 1-33, 4-Amino-5-(3-methoxy-benzoyl)-2-phenylamino-thiophene-3-carbonitrile]	> 5.00	> 5.00	> 5.00	> 5.00	> 20	–
N#Cc1c(NCc2ccccc2)sc(C(=O)c2cc(-c3ccccc3)no2)c1N [Compound 1-193, 4-Amino-2-benzylamino-5-(3-phenyl-isoxazole-5-carbonyl)-thiophene-3-carbonitrile]	< 5.00	< 5.00	> 5.00	–	< 20	–
